The subject of the assay is phenyl-p-benzoquinone induced writhing in mice. The experiment in a line: mouse antiphenylquinone (phenyl-p-benzoquinone induced) writhing test, oral, 20 min.

The values below come from patent US4404211A, “Analgesic mixture of nalbuphine and flurbiprofen” (E. I. Du Pont de Nemours and Company, priority 1982, dated 1983).

Experimental: Male CF1 mice obtained from Charles River Breeding Laboratories, fasted for 16-22 hours and weighing 18-22 g at the time of testing are used throughout. All mice are dosed sequentially by the oral route with solutions of flurbiprofen and/or of nalbuphine hydrochloride. A dosing volume of 10 ml/kg is used for each sequential solution or suspension. […] All doses are coded and the test is performed under a code not known to the observer.
A stock solution of flurbiprofen is prepared by dissolving dry flurbiprofen powder with an equimolar amount of one molar sodium hydroxide and sufficient water to produce the required solution concentration. The acidity is adjusted with dilute hydrochloric acid to pH 9.0. All dosing solutions are prepared by dilution of the stock solution with distilled water; the vehicle control is distilled water.
Stock solutions of nalbuphine HCl are prepared by dissolving dry nalbuphine hydrochloride powder with distilled water. All dosing solutions are prepared by dilution of the stock solution with distilled water; the vehicle control is distilled water.
As indicated above, the standard procedure based upon the prevention of phenyl-p-benzoquinone induced writhing in mice is utilized to detect and quantify the analgetic activity of compositions containing nalbuphine and flurbiprofen.
Mice, intubated with various doses of nalbuphine hydrochloride, flurbiprofen, combined doses of nalbuphine hydrochloride and flurbiprofen,or vehicle, are injected intraperitoneally with a challenge dose of phenyl-p-benzoquinone 5 minutes prior to the designated observation period. […] For scoring purposes a "writhe" is indicated by whole body stretching or contraction of the abdomen; mice are observed 10 minutes for the presence or absence of writhing beginning 5 minutes after receiving the phenyl-p-benzoquinone dose. Each mouse is used only once, then discarded. […] This dosage as described herein is referred to as the ED50.
In order to study the interaction between nalbuphine and flurbiprofen, 5 precise dosage ratios of nalbuphine hydrochloride and flurbiprofen are selected. Four or five coded doses of each selected combination are studied for analgesic effectivenss at 20 minutes using an experimental design which permits coding and complete randomization of the separate dosage forms tested. Althogether 35 separate dosage forms are used and each form is represented in each experimental session. The experiments are continued by running experimental sessions with an equal number of mice per group being tested until the total number, N, of mice tested per group is 20. Later, an additional 20 mice/dose are tested and the results are pooled with the original data to yield N=20-40 mice/dose.

For the compound `Oc1ccc2c3c1O[C@H]1[C@@H](O)CC[C@@]4(O)[C@@H](C2)N(CC2CCC2)CC[C@]314` [Nalbuphine Only (1:0), (-)-17-(cyclobutylmethyl)-4,5α-epoxymorphinan-3,6α,14-triol], the “% MICE BLOCKED” value is, setting by setting: (nalbuphine HCl 2.93 + flurbiprofen 0 mg/kg) 12.5%; (nalbuphine HCl 5.85 + flurbiprofen 0 mg/kg) 22.5%; (nalbuphine HCl 11.7 + flurbiprofen 0 mg/kg) 45.0%; (nalbuphine HCl 23.4 + flurbiprofen 0 mg/kg) 67.5%; (nalbuphine HCl 46.8 + flurbiprofen 0 mg/kg) 80.0%. Further, the “ED50 at 20 Min. (95% Confidence Limits), Nalbuphine HCl” value (nalbuphine HCl dose (alone or as component of the combination), N = 20-40 mice/dose) amounted to 16.5 mg/kg.

Regarding `CC(C(=O)O)c1ccc(-c2ccccc2)c(F)c1` (stereo not drawn) [Flurbiprofen Only (0:1), 2-fluoro-α-methyl[1,1'-biphenyl]-4-acetic acid], for the setting “flurbiprofen dose (alone or as component of the combination), N = 20-40 mice/dose”, the “ED50 at 20 Min. (95% Confidence Limits), Flurbiprofen” value worked out at 1.56 mg/kg. Also, the “% MICE BLOCKED” value is 5.0% (nalbuphine HCl 0 + flurbiprofen 0.4 mg/kg), 32.5% (nalbuphine HCl 0 + flurbiprofen 0.8 mg/kg), 45.0% (nalbuphine HCl 0 + flurbiprofen 1.6 mg/kg) and 87.5% (nalbuphine HCl 0 + flurbiprofen 3.2 mg/kg).
